{"source": "ChEMBL document CHEMBL4715740", "about": "“Synthesis, anti-inflammatory, analgesic, COX-1/2 inhibitory activities and molecular docking studies of substituted 2-mercapto-4(3H)-quinazolinones” (Eur J Med Chem, 2016)", "key": {"[1]": {"molecular_target": "T1, Prostaglandin G/H synthase 1 (Ovis aries, UniProt P05979)", "T1 sequence (P05979 whole entry)": "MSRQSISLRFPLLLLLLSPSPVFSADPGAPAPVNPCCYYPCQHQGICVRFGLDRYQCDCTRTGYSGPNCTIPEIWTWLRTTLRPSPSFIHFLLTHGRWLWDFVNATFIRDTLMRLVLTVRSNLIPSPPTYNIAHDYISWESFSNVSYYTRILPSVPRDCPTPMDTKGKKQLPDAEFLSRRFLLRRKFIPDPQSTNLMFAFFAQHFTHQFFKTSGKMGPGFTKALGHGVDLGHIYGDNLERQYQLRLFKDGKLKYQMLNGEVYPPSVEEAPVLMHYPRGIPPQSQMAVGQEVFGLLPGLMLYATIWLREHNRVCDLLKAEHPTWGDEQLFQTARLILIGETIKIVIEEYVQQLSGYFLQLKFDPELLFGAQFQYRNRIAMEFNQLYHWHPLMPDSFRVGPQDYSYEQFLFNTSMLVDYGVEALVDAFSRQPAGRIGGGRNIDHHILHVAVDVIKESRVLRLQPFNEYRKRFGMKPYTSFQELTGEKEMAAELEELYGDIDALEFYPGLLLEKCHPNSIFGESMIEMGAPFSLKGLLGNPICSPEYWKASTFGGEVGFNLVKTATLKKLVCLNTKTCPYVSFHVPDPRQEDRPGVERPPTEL", "experiment": "Inhibition of ovine COX1 assessed as reduction in PGF2alpha production using arachidonic acid as substrate preincubated with enzyme for 5 mins followed by substrate addition and measured after 2 mins by colorimetric analysis"}, "[2]": {"test_system": "Rattus norvegicus", "experiment": "Antiinflammatory activity against Sprague-Dawley rat assessed as reduction in carragenan-induced paw edema administered ip and measured after 2 hrs by plethysmometry", "assay_type": "functional"}, "[3]": {"test_system": "Mus musculus", "experiment": "Analgesic activity in Swiss albino mouse administered ip and measured after 60 mins by hot plate method", "assay_type": "functional", "conditions": "1 h"}}}
{"smiles": "O=c1c2ccccc2nc(S)n1CCc1ccccn1", "values": [{"measurement": "IC50", "setting": "[1]", "result": "> 100", "unit": "µM"}]}
{"smiles": "CCOC(=O)CSc1nc2ccccc2c(=O)n1CCc1ccccn1", "values": [{"measurement": "ED50", "setting": "[2]", "result": "> 200", "unit": "mg/kg"}, {"measurement": "ED50", "setting": "[3]", "result": "> 200", "unit": "mg/kg"}]}
{"smiles": "NNC(=O)CSc1nc2ccccc2c(=O)n1CCc1ccccn1", "values": [{"measurement": "IC50", "setting": "[1]", "result": "> 100", "unit": "µM"}]}
{"smiles": "CC(C)c1ccc(CSc2nc3ccccc3c(=O)n2CCc2ccccn2)cc1", "values": [{"measurement": "ED50", "setting": "[2]", "result": "> 200", "unit": "mg/kg"}, {"measurement": "ED50", "setting": "[3]", "result": "> 200", "unit": "mg/kg"}]}
{"smiles": "N#CCSc1nc2ccccc2c(=O)n1CCc1ccccn1", "values": [{"measurement": "ED50", "setting": "[2]", "result": "> 200", "unit": "mg/kg"}, {"measurement": "ED50", "setting": "[3]", "result": "> 200", "unit": "mg/kg"}]}
{"smiles": "CCn1c(S)nnc1CSc1nc2ccccc2c(=O)n1CCc1ccccn1", "values": [{"measurement": "ED50", "setting": "[2]", "result": 91.9, "unit": "mg/kg"}, {"measurement": "ED50", "setting": "[3]", "result": 71.4, "unit": "mg/kg"}, {"measurement": "IC50", "setting": "[1]", "result": "> 100", "unit": "µM"}]}
{"smiles": "CCNC(=S)NNC(=O)CSc1nc2ccccc2c(=O)n1CCc1ccccn1", "values": [{"measurement": "ED50", "setting": "[2]", "result": 70.5, "unit": "mg/kg"}, {"measurement": "ED50", "setting": "[3]", "result": 33.3, "unit": "mg/kg"}, {"measurement": "IC50", "setting": "[1]", "result": "> 100", "unit": "µM"}]}
{"smiles": "O=C1c2ccccc2C(=O)N1CCCSc1nc2ccccc2c(=O)n1CCc1ccccn1", "values": [{"measurement": "ED50", "setting": "[2]", "result": "> 200", "unit": "mg/kg"}, {"measurement": "ED50", "setting": "[3]", "result": "> 200", "unit": "mg/kg"}]}
{"smiles": "COc1ccc(C(=O)NNC(=O)CSc2nc3ccccc3c(=O)n2CCc2ccccn2)cc1", "values": [{"measurement": "ED50", "setting": "[2]", "result": 101, "unit": "mg/kg"}, {"measurement": "ED50", "setting": "[3]", "result": 101, "unit": "mg/kg"}, {"measurement": "IC50", "setting": "[1]", "result": "> 100", "unit": "µM"}]}
{"smiles": "O=c1c2ccccc2nc(SCc2ccc(Cl)cc2)n1CCc1ccccn1", "values": [{"measurement": "ED50", "setting": "[2]", "result": 65.7, "unit": "mg/kg"}, {"measurement": "ED50", "setting": "[3]", "result": 99.2, "unit": "mg/kg"}, {"measurement": "IC50", "setting": "[1]", "result": "> 100", "unit": "µM"}]}
{"smiles": "CCNc1nnc(CSc2nc3ccccc3c(=O)n2CCc2ccccn2)s1", "values": [{"measurement": "ED50", "setting": "[2]", "result": "> 200", "unit": "mg/kg"}, {"measurement": "ED50", "setting": "[3]", "result": "> 200", "unit": "mg/kg"}]}
{"smiles": "O=C(CSc1nc2ccccc2c(=O)n1CCc1ccccn1)NNC(=O)c1ccccc1", "values": [{"measurement": "ED50", "setting": "[2]", "result": 90.1, "unit": "mg/kg"}, {"measurement": "ED50", "setting": "[3]", "result": 86.1, "unit": "mg/kg"}, {"measurement": "IC50", "setting": "[1]", "result": "> 100", "unit": "µM"}]}
{"smiles": "O=c1c2ccccc2nc(SCCN2CCOCC2)n1CCc1ccccn1", "values": [{"measurement": "ED50", "setting": "[2]", "result": "> 200", "unit": "mg/kg"}, {"measurement": "ED50", "setting": "[3]", "result": "> 200", "unit": "mg/kg"}]}
{"smiles": "CCC(=O)NNC(=O)CSc1nc2ccccc2c(=O)n1CCc1ccccn1", "values": [{"measurement": "ED50", "setting": "[2]", "result": 83.3, "unit": "mg/kg"}, {"measurement": "ED50", "setting": "[3]", "result": 95.5, "unit": "mg/kg"}, {"measurement": "IC50", "setting": "[1]", "result": "> 100", "unit": "µM"}]}
{"smiles": "COc1ccc(NC(=S)NNC(=O)CSc2nc3ccccc3c(=O)n2CCc2ccccn2)cc1", "values": [{"measurement": "ED50", "setting": "[2]", "result": "> 200", "unit": "mg/kg"}, {"measurement": "ED50", "setting": "[3]", "result": "> 200", "unit": "mg/kg"}]}
{"smiles": "O=C(CSc1nc2ccccc2c(=O)n1CCc1ccccn1)NNC(=S)NCc1ccccc1", "values": [{"measurement": "ED50", "setting": "[2]", "result": "> 200", "unit": "mg/kg"}, {"measurement": "ED50", "setting": "[3]", "result": 47.4, "unit": "mg/kg"}]}
{"smiles": "O=c1c2ccccc2nc(SCc2nnc(S)n2-c2ccccc2)n1CCc1ccccn1", "values": [{"measurement": "ED50", "setting": "[2]", "result": "> 200", "unit": "mg/kg"}, {"measurement": "ED50", "setting": "[3]", "result": "> 200", "unit": "mg/kg"}]}
{"smiles": "O=c1c2ccccc2nc(SCc2nnc(Nc3ccccc3)s2)n1CCc1ccccn1", "values": [{"measurement": "ED50", "setting": "[2]", "result": "> 200", "unit": "mg/kg"}, {"measurement": "ED50", "setting": "[3]", "result": "> 200", "unit": "mg/kg"}]}
{"smiles": "O=c1c2ccccc2nc(SCc2nnc(NCc3ccccc3)s2)n1CCc1ccccn1", "values": [{"measurement": "ED50", "setting": "[2]", "result": "> 200", "unit": "mg/kg"}, {"measurement": "ED50", "setting": "[3]", "result": "> 200", "unit": "mg/kg"}]}
{"smiles": "CSc1nc2ccccc2c(=O)n1CCc1ccccn1", "values": [{"measurement": "ED50", "setting": "[2]", "result": "> 200", "unit": "mg/kg"}, {"measurement": "ED50", "setting": "[3]", "result": "> 200", "unit": "mg/kg"}]}
{"smiles": "O=C(CSc1nc2ccccc2c(=O)n1CCc1ccccn1)NNC(=S)Nc1ccccc1", "values": [{"measurement": "ED50", "setting": "[2]", "result": "> 200", "unit": "mg/kg"}, {"measurement": "ED50", "setting": "[3]", "result": "> 200", "unit": "mg/kg"}]}
{"smiles": "COc1ccc(Nc2nnc(CSc3nc4ccccc4c(=O)n3CCc3ccccn3)s2)cc1", "values": [{"measurement": "ED50", "setting": "[2]", "result": "> 200", "unit": "mg/kg"}, {"measurement": "ED50", "setting": "[3]", "result": "> 200", "unit": "mg/kg"}]}
{"smiles": "CCSc1nc2ccccc2c(=O)n1CCc1ccccn1", "values": [{"measurement": "ED50", "setting": "[2]", "result": 74.5, "unit": "mg/kg"}, {"measurement": "ED50", "setting": "[3]", "result": 105, "unit": "mg/kg"}, {"measurement": "IC50", "setting": "[1]", "result": "> 100", "unit": "µM"}]}
{"smiles": "O=C(CSc1nc2ccccc2c(=O)n1CCc1ccccn1)NNC(=O)c1ccc(Cl)cc1", "values": [{"measurement": "ED50", "setting": "[2]", "result": "> 200", "unit": "mg/kg"}, {"measurement": "ED50", "setting": "[3]", "result": "> 200", "unit": "mg/kg"}]}
{"smiles": "O=c1c2ccccc2nc(SCc2ccccc2)n1CCc1ccccn1", "values": [{"measurement": "ED50", "setting": "[2]", "result": "> 200", "unit": "mg/kg"}, {"measurement": "ED50", "setting": "[3]", "result": "> 200", "unit": "mg/kg"}]}
{"smiles": "O=c1c2ccccc2nc(SCc2nnc(S)n2Cc2ccccc2)n1CCc1ccccn1", "values": [{"measurement": "ED50", "setting": "[2]", "result": "> 200", "unit": "mg/kg"}, {"measurement": "ED50", "setting": "[3]", "result": "> 200", "unit": "mg/kg"}]}
{"smiles": "Cc1ccc(-c2cc(C(F)(F)F)nn2-c2ccc(S(N)(=O)=O)cc2)cc1", "note": "[CELECOXIB]", "values": [{"measurement": "ED50", "setting": "[2]", "result": 84.3, "unit": "mg/kg"}, {"measurement": "ED50", "setting": "[3]", "result": 71.6, "unit": "mg/kg"}]}
